Bridge positions count the residues as written; N and C are the ends. Square brackets hold non-standard residues; d marks the D form. Peptide text beside a SMILES is read from it. Dab = NCC[C@H](N)C(=O)O
Experiments:
Assay type in all cases: cell-based, Escherichia coli
E. coli BW25113 [1] = test system: E. coli BW25113
E. coli BW25113 [2] = experiment: microbe, parasite or virus in culture
Procedure: (§1) All peptides were screened for antimicrobial activity against E. coli BW25113, E. coli ATCC25922, and E. coli W3110. A select group of the peptides was further tested against E. coli mcr-1, E. coli EQASmcr-1 (EQAS 2016 412016126), E. coli EQASmcr-2 (EQAS 2016 KP37), E. coli EQASmcr-3 (EQAS 2017 2013-SQ352), K. pneumoniae ATCC13883, P. aeruginosa ATCC27853, and A. baumannii ATCC17978. The antimicrobial assay was performed according to CLSI guidelines. Bacteria were plated out directly from their glycerol stocks on blood agar plates, incubated overnight at 37 °C, and then kept in the fridge. The blood agar plates were only used for 2 weeks and then replaced.
(§2) One colony from a blood agar plates was inoculated in Lysogeny Broth (LB) at 37 °C until a 0.5 optical density at 600 nm (OD600) was reached (compared to the sterility control of LB). The bacterial suspension was diluted in fresh LB to 2.0 × 10^6 CFU/mL. The serial dilutions were prepared in polypropylene microtiter plates: a stock of the test compounds was prepared with a 2x final concentration in LB. Moreover, 100 µL of the stock was added to the wells of the top row of which 50 µL was used for the serial dilution. The bottom row of each plate was used as the positive (50 µL of LB) and negative controls (100 µL of LB) (6 wells each). Furthermore, 50 µL of the 2.0 × 10^6 CFU/mL bacterial stock was added to each well except for the negative controls, adding up to a total volume of 100 µL per well. The plates were sealed with a breathable seal and incubated for 20 h at 37 °C and 600 rpm.
(§3) Two 96-well plates were required per compound. A serial dilution of the compound was performed on two plates from row A–G using with LB as medium. Row H was filled with 25 µL medium. On a separate plate a negative control (8 wells, 100 μL medium) was prepared. For all concentrations of antibiotic a specific stock was prepared. 25 µL medium was added to the 0 µg/mL antibiotic columns (plate I, column 1–3). Of each antibiotic stock 25 µL was added to three columns to obtain triplicates for every condition. Both plates contained 50 µL in each well to which 50 µL bacterial stock was added (see the protocol of the MIC assays) and the plates were sealed. After incubation for 20 h at 37 °C while shaking, the breathable seals were removed and the density of the bacterial suspensions measured at 600 nm (OD600) using a Tecan Spark plate reader. The OD600 values were transformed to a 2D gradient with the negative control as minimum and the positive control (wells G1, G2, and G3) as maximum in excel. The FICi was calculated using Equation (1) with a FICi ≤ 0.5 indicating synergy. FICi = (MSCa/MICa) + (MSCb/MICb),(1)
(§4) Calculation of the FICi: MSCa = concentration of the […] in combination with the antibiotic that results in the lowest FICi. MICa = MIC of the antibiotic without synergist (row G). MSCb = concentration of the synergist in combination with the antibiotic that results in the lowest FICi. MICb = MIC of the synergist itself (Column 1–3, plate I).

E. coli BW25113 [3] = experiment: Membrane permeability assay using N-phenylnaphthalen-1-amine (NPN); conditions: at […]; 60 min incubation, λex 355 nm, λem 420 nm, relative to 100 µg/mL colistin; n = 3 technical replicates
Procedure: Figure 7 Permeabilization assay of E. coli BW25113 using N-Phenyl-1-naphthylamine as fluorescent probe. The read-out was performed after 60 min of incubation using a plate reader with λex 355 nm and λem 420 nm. The N-phenyl-napthalen-1-amine (NPN) uptake values shown are relative to the uptake signal obtained upon treating the cells with 100 µg/mL colistin as previously reported. Error bars represent the standard deviation based on n = 3 technical replicates. A read-out was also performed after 10 min of incubation (see Supplementary data, Figure S16).
This assay was adapted from a protocol described in literature. Bacteria were inoculated overnight at 37 °C in LB, diluted the next day 50× in LB and grown to OD600 of 0.5. The bacterial suspension was then centrifuged for 10 min at 1000× g at 25 °C. The pellet of bacteria was resuspended in 5 mM HEPES buffer containing 20mM glucose to a final concentration of OD600 of 1.0. […] After 10 and 60 min, the plate was measured using Tecan plate reader with λex 355 nm ±20 nm and λem 420 nm ± 20 nm. The fluorescence values obtained were then transformed into a NPN uptake percentage using the following Equation (2):NPN uptake (%) = (Fobs − F0)/(F100 − F0) × 100%,(2)
Equation (2) consists of an observed value of fluorescence (Fobs), which is corrected for background using the negative control (F0). […]

E. coli BW25113 [4] = experiment: microbe, parasite or virus in culture; remark: listed apart in the source
Procedure: as §1, §2, §3, §4

E. coli BW25113 [5] = experiment: Checkerboard assay with erythromycin

With `CC(C)C[C@@H]1NC(=O)[C@@H](Cc2ccccc2)NC(=O)[C@H](CCN)NC(=O)[C@@H](NC(=O)[C@H](CCN)NC(=O)[C@@H](N)[C@@H](C)O)CCNC(=O)[C@H]([C@@H](C)O)NC(=O)[C@H](CCN)NC(=O)[C@H](CCN)NC1=O` [PMBN, polymyxin B nonapeptide, reference compound] (H-T[Dab][Dab][Dab][dF]L[Dab][Dab]T; lactam 3-C (inferred); N-terminus assumed) as the molecule, how does the MSCrif (E. coli BW25113 [1]; rifampicin concentration in the combination giving the lowest FICi, E. coli BW25113) read?
The MSCrif was 0.25 µg/mL.

And the MICpep (E. coli BW25113 [1]; synergist alone, E. coli BW25113, from checkerboard with rifampicin)?
Its MICpep is > 200 µg/mL.

And the MSCpep (E. coli BW25113 [1]; synergist concentration in the combination with rifampicin giving the lowest FICi, E. coli BW25113)?
The MSCpep was 12.5 µg/mL.

What about the MICpeptide (E. coli BW25113 [2]; synergist alone, E. coli BW25113, from checkerboard with vancomycin) of the same molecule?
The MICpeptide was > 200 µg/mL.

What about the MSCpeptide (E. coli BW25113 [2]; synergist concentration in the combination with vancomycin giving the lowest FICi, E. coli BW25113) of the same molecule?
The MSCpeptide was 12.5 µg/mL.

And the MSCvanco (E. coli BW25113 [2]; vancomycin concentration in the combination giving the lowest FICi, E. coli BW25113)?
Its MSCvanco is 50 µg/mL.

What about the “OM permeabilization (NPN uptake)” value (E. coli BW25113 [3]) of the same molecule?
Its value is “ca. 80%”.

What about the MSCnovo (E. coli BW25113 [4]; novobiocin concentration in the combination giving the lowest FICi, E. coli BW25113) of the same molecule?
The MSCnovo was 6.25 µg/mL.

What about the MICpeptide (E. coli BW25113 [4]; synergist alone, E. coli BW25113, from checkerboard with novobiocin) of the same molecule?
The MICpeptide was > 200 µg/mL.

And the MSCpeptide (E. coli BW25113 [4]; synergist concentration in the combination with novobiocin giving the lowest FICi, E. coli BW25113)?
Its MSCpeptide is 12.5 µg/mL.

And the FICi (E. coli BW25113 [5]; BW25113, 20 h)?
The FICi was 0.125.

What about the MSCery (E. coli BW25113 [5]; erythromycin concentration in the combination with the synergist giving the lowest FICi, E. coli BW25113) of the same molecule?
Its MSCery is 12.5 µg/mL.

What about the “MIC of the peptide (MICpep)” value (E. coli BW25113 [5]; synergist alone, E. coli BW25113, LB, 20 h 37 °C, from checkerboard with erythromycin) of the same molecule?
The value was > 200 µg/mL.

What about the “MSCpeptide, minimum synergistic concentration” value (E. coli BW25113 [5]; synergist concentration in the combination with erythromycin giving the lowest FICi, E. coli BW25113, LB, 20 h 37 °C, OD600) of the same molecule?
Its value is 25 µg/mL.

Source: paper PMC8037310, “Thrombin-Derived Peptides Potentiate the Activity of Gram-Positive-Specific Antibiotics against Gram-Negative Bacteria” (Molecules, 2021)
